According to patent US20170246166A1, “1,2-BENZOTHIAZOLE COMPOUNDS FOR THE TREATMENT OF KIDNEY DISORDERS” (priority 2014, published 2017):

Experiments:
PKC = assay: Cell-based assay of PKC inhibition (PKC substrate phosphorylation in THP-1 cells); details: human THP-1 cells, 1.5 h compound, then 20 nM PMA for 30 min; read-out: absolute IC50, PKC substrate phosphorylation
Description: The purpose of this assay is to test the inhibitory effects of a test compound on PKC in a cell-based system by measuring the level of PKC substrate phosphorylation.
Staurosporin may be used as a positive control. It is prepared in DMSO to make up a […] solution and then serially diluted in plain RPMI 1640 culture medium (10 μM-0.0005 μM) to obtain a ten-point dilution curve. Test compounds are prepared in the same manner.
THP-1 cells (human macrophage cell line) are obtained from ATCC (ATCC TIB-202 lot 4028542). The cells are cultured in 96-well plates coated with poly-d-lysine (Becton Dickinson) with seeding density of 4000 cells/well in RPMI 1640 culture medium (Gibco) with 1% fetal bovine serum (Gibco). […]
After the incubation, the cells are first fixed in the Prefer fixative (ANATECH LTD) for 30 min at room temperature. […] Plates are scanned with an ACUMEN EXPLORER™ Laser-scanning fluorescence microplate cytometer (TTP LABTECH LTD), with 488 nm laser excitation to detect emission fluorescence at 655 nm-705 nm (emission of DNA bound propidium iodide) for cell counting/well, and emission of 505 nm-530 nm fluorescence of antibody binding to phosphorylated PKC substrates in cells. The main assay output is a ratio of total fluorescence of phosphorylated PKC substrates to total cell number (ratio=total intensity/total cell number). […]

human PKCζ = molecular target: T1, human PKCζ (Homo sapiens, UniProt Q05513); assay: PKC isoforms based HTRF KinEASE-STK assay, PKCζ; format: biochemical; details: 10 μM ATP in substrate mix, 70 min
T1 sequence (Q05513 1-592): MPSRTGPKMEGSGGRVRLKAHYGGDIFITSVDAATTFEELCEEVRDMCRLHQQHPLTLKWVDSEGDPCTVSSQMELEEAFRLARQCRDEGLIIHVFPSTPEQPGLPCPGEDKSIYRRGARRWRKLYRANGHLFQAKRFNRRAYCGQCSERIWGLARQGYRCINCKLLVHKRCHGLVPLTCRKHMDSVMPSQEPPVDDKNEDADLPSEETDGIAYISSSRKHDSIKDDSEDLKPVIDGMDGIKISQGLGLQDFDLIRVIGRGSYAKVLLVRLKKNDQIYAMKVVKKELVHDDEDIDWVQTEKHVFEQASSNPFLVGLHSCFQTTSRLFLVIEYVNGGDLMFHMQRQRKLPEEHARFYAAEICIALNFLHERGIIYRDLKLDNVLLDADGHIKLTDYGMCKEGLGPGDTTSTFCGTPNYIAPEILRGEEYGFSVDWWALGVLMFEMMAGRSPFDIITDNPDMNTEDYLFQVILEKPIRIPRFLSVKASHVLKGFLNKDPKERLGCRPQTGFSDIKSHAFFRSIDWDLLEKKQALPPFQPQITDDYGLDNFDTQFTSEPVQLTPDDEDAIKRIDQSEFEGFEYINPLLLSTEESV
Text: The purpose of this assay is to evaluate the inhibitory activity of compounds on various PKC isoforms. It has been reported that perturbations in vascular cell homeostasis caused by different PKC isoforms (PKC-α, β1/2, and PKC-δ) are linked to the development of pathologies affecting large vessel (atherosclerosis, cardiomyopathy) and small vessel (retinopathy, nephropathy, and neuropathy) complications. Geraldes, P. and King, G. L., “Activation of Protein Kinase C Isoforms and Its Impact on Diabetic Complications”, Cir.
Effects of a test compound on the kinase activity of PKCα, β2, δ, ε, ι, and ζ, are determined using a HTRF KINEASE™-STK assay kit (Cisbio) in accordance with the protocol provided by the vendor. It is a general method for measuring Serine/Threonine kinase activities using kinase substrates and a universal detection system. In the current protocol, biotinilated STK1provided in the assay kit is used as the substrate that can be phosphorylated by any PKC isoform. The HTRF KINEASE™-STK assay kit format involves the two steps (Enzymatic step and Detection step) described below. First, the kinase phosphorylates the substrate in the presence of ATP. Second, the detection reagents provided in the assay kit recognize the phosphorylated substrate.

C[C@@H]1CN(C(=O)c2cc(-c3c(F)cc(O)cc3F)cc3cnsc23)C[C@H](C)N1.Cl [Example 2, 4-(7-{[(3R,5 S)-3,5-DIMETHYLPIPERAZIN-1-YL]CARBONYL}-1,2-BENZOTHIAZOL-5-YL)-3,5-DIFLUOROPHENOL HYDROCHLORIDE]
IC50 (PKC): ~0.8 µM
IC50 (human PKCζ): ~15.5 µM
